Experimental data: the NIST ThermoML archive (doi:10.1021/acs.jced.8b00132)
Several values for one entry are separate records, joined by “and”; a condition that tells them apart may be missing. Identical values can stand only once.

Conditions: transient hot wire

O=C(C(F)(F)C(F)(F)F)C(F)(C(F)(F)F)C(F)(F)F [dodecafluoro-2-methylpentan-3-one]
Conditions	thermal conductivity
331.38 K, 45565 kPa, Liquid	0.06924 W/m/K
331.38 K, 45571 kPa, Liquid	0.06916 W/m/K
331.39 K, 36560 kPa, Liquid	0.06692 W/m/K
331.4 K, 36561 kPa, Liquid	0.0672 W/m/K
331.51 K, 102 kPa, Gas	0.01402 W/m/K
331.54 K, 107 kPa, Gas	0.01383 W/m/K
331.55 K, 3950 kPa, Liquid	0.05388 W/m/K
331.55 K, 3951 kPa, Liquid	0.05379 W/m/K
331.56 K, 72 kPa, Gas	0.01361 W/m/K
331.58 K, 74 kPa, Gas	0.01363 W/m/K
331.64 K, 28068 kPa, Liquid	0.06457 W/m/K
331.64 K, 28075 kPa, Liquid	0.06383 W/m/K
331.67 K, 20446 kPa, Liquid	0.06141 W/m/K
331.67 K, 20447 kPa, Liquid	0.06118 W/m/K
331.7 K, 14109 kPa, Liquid	0.0585 W/m/K
331.71 K, 14116 kPa, Liquid	0.05838 W/m/K
331.75 K, 8577 kPa, Liquid	0.05613 W/m/K
331.75 K, 69214 kPa, Liquid	0.07577 W/m/K
331.76 K, 8578 kPa, Liquid	0.0562 W/m/K
331.76 K, 69231 kPa, Liquid	0.07536 W/m/K
331.77 K, 57729 kPa, Liquid	0.0724 W/m/K
331.77 K, 57733 kPa, Liquid	0.07259 W/m/K
331.79 K, 239 kPa, Liquid	0.05138 W/m/K
331.79 K, 45573 kPa, Liquid	0.06907 W/m/K
331.8 K, 242 kPa, Liquid	0.05139 W/m/K
331.8 K, 45574 kPa, Liquid	0.06925 W/m/K
331.81 K, 102 kPa, Gas	0.01364 W/m/K
331.83 K, 106 kPa, Gas	0.01386 W/m/K
331.83 K, 36555 kPa, Liquid	0.06649 W/m/K
331.83 K, 36558 kPa, Liquid	0.06686 W/m/K
331.84 K, 107 kPa, Liquid	0.05166 W/m/K and 0.05159 W/m/K
331.86 K, 71 kPa, Gas	0.01366 W/m/K
331.89 K, 74 kPa, Gas	0.01368 W/m/K
332.07 K, 3947 kPa, Liquid	0.05394 W/m/K
332.08 K, 3946 kPa, Liquid	0.05395 W/m/K
332.12 K, 28065 kPa, Liquid	0.06395 W/m/K
332.12 K, 28069 kPa, Liquid	0.06418 W/m/K
332.14 K, 107 kPa, Gas	0.01388 W/m/K
332.18 K, 20442 kPa, Liquid	0.0612 W/m/K and 0.06122 W/m/K
332.19 K, 71 kPa, Gas	0.0138 W/m/K
332.19 K, 69215 kPa, Liquid	0.07588 W/m/K
332.19 K, 69218 kPa, Liquid	0.07551 W/m/K
332.22 K, 57721 kPa, Liquid	0.07263 W/m/K
332.22 K, 57724 kPa, Liquid	0.07259 W/m/K
332.23 K, 74 kPa, Gas	0.01373 W/m/K
332.23 K, 14110 kPa, Liquid	0.05828 W/m/K
332.23 K, 14111 kPa, Liquid	0.05807 W/m/K
332.27 K, 45566 kPa, Liquid	0.06911 W/m/K
332.28 K, 45563 kPa, Liquid	0.06904 W/m/K
332.3 K, 8573 kPa, Liquid	0.0558 W/m/K
332.3 K, 8574 kPa, Liquid	0.05582 W/m/K
332.32 K, 36553 kPa, Liquid	0.06631 W/m/K
332.33 K, 36552 kPa, Liquid	0.06642 W/m/K
332.35 K, 238 kPa, Liquid	0.05149 W/m/K
332.35 K, 239 kPa, Liquid	0.05131 W/m/K
332.38 K, 108 kPa, Liquid	0.05165 W/m/K
332.39 K, 107 kPa, Liquid	0.05161 W/m/K
332.47 K, 102 kPa, Gas	0.01373 W/m/K
332.56 K, 71 kPa, Gas	0.01389 W/m/K
332.59 K, 73 kPa, Gas	0.01379 W/m/K
332.65 K, 28066 kPa, Liquid	0.0639 W/m/K
332.66 K, 28069 kPa, Liquid	0.06388 W/m/K
332.68 K, 3944 kPa, Liquid	0.05341 W/m/K
332.68 K, 3949 kPa, Liquid	0.05349 W/m/K
332.68 K, 69200 kPa, Liquid	0.07562 W/m/K
332.69 K, 69200 kPa, Liquid	0.07558 W/m/K
332.73 K, 20437 kPa, Liquid	0.06118 W/m/K
332.73 K, 57710 kPa, Liquid	0.07255 W/m/K
332.73 K, 57718 kPa, Liquid	0.07251 W/m/K
332.74 K, 20439 kPa, Liquid	0.06126 W/m/K
332.8 K, 45557 kPa, Liquid	0.06917 W/m/K
332.81 K, 45558 kPa, Liquid	0.06905 W/m/K
332.82 K, 14107 kPa, Liquid	0.05846 W/m/K
332.83 K, 102 kPa, Gas	0.01371 W/m/K
332.83 K, 14108 kPa, Liquid	0.05829 W/m/K
332.85 K, 107 kPa, Gas	0.01391 W/m/K
332.87 K, 36553 kPa, Liquid	0.06645 W/m/K
332.87 K, 36556 kPa, Liquid	0.06639 W/m/K
332.91 K, 8572 kPa, Liquid	0.05573 W/m/K
332.91 K, 8573 kPa, Liquid	0.05574 W/m/K
332.94 K, 70 kPa, Gas	0.01377 W/m/K
332.97 K, 73 kPa, Gas	0.01383 W/m/K
332.97 K, 230 kPa, Liquid	0.05124 W/m/K
332.98 K, 237 kPa, Liquid	0.05109 W/m/K
